Data: PubChem BioAssay (NCI)
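The compound was tested at five concentrations on cells cultured in 96-well plates, with a 48-hour exposure period. TGI marks complete inhibition of growth.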

How the values were obtained:
Assay in all cases: NCI-60 cell line screen, 48 h
RXF 393 renal = test system: RXF 393 renal
RPMI-8226 leukemia = test system: RPMI-8226 leukemia
ACHN renal = test system: ACHN renal
DMS 114 small cell lung = test system: DMS 114 small cell lung
SNB-19 CNS = test system: SNB-19 CNS
A549 NSCLC = test system: A549 NSCLC
SK-MEL-2 melanoma = test system: SK-MEL-2 melanoma
OVCAR-3 ovarian = test system: OVCAR-3 ovarian
SF-268 CNS = test system: SF-268 CNS
M19-MEL melanoma = test system: M19-MEL melanoma
NCI-H226 lung = test system: NCI-H226 lung
786-0 renal = test system: 786-0 renal
U251 CNS = test system: U251 CNS
SW-620 colon = test system: SW-620 colon
TK-10 renal = test system: TK-10 renal
OVCAR-5 ovarian = test system: OVCAR-5 ovarian
NCI-H23 lung = test system: NCI-H23 lung
HOP-92 NSCLC = test system: HOP-92 NSCLC
UACC-62 melanoma = test system: UACC-62 melanoma
HCT-116 colon = test system: HCT-116 colon
SF-295 CNS = test system: SF-295 CNS
OVCAR-8 ovarian = test system: OVCAR-8 ovarian
SNB-78 CNS = test system: SNB-78 CNS
COLO 205 colon = test system: COLO 205 colon
SN12C renal = test system: SN12C renal
SF-539 CNS = test system: SF-539 CNS
LXFL 529 NSCLC = test system: LXFL 529 NSCLC
SR leukemia = test system: SR leukemia
SNB-75 CNS = test system: SNB-75 CNS
HT29 colon = test system: HT29 colon
MALME-3M melanoma = test system: MALME-3M melanoma
HCC-2998 colon = test system: HCC-2998 colon
KM20L2 colon = test system: KM20L2 colon
SK-MEL-28 melanoma = test system: SK-MEL-28 melanoma
KM12 colon = test system: KM12 colon
IGROV1 ovarian = test system: IGROV1 ovarian
EKVX NSCLC = test system: EKVX NSCLC
SK-OV-3 ovarian = test system: SK-OV-3 ovarian
MOLT-4 leukemia = test system: MOLT-4 leukemia
UACC-257 melanoma = test system: UACC-257 melanoma
UO-31 renal = test system: UO-31 renal
K-562 leukemia = test system: K-562 leukemia
SK-MEL-5 melanoma = test system: SK-MEL-5 melanoma
HCT-15 colon = test system: HCT-15 colon
CCRF-CEM leukemia = test system: CCRF-CEM leukemia
NCI-H460 lung = test system: NCI-H460 lung
NCI-H522 lung = test system: NCI-H522 lung
CAKI-1 renal = test system: CAKI-1 renal
HL-60(TB) leukemia = test system: HL-60(TB) leukemia
DMS 273 small cell lung = test system: DMS 273 small cell lung
A498 renal = test system: A498 renal
DLD-1 colon = test system: DLD-1 colon
LOX IMVI melanoma = test system: LOX IMVI melanoma
OVCAR-4 ovarian = test system: OVCAR-4 ovarian
M14 melanoma = test system: M14 melanoma
HOP-62 NSCLC = test system: HOP-62 NSCLC
HOP-18 NSCLC = test system: HOP-18 NSCLC

Measured: TGI

Cn1c(=O)c2nc3c4ccccc4c(=O)n(C)c3nc2n(C)c1=O
not listed: CCRF-CEM leukemia | NCI-H460 lung | NCI-H522 lung | CAKI-1 renal | HL-60(TB) leukemia | DMS 273 small cell lung | A498 renal | DLD-1 colon | LOX IMVI melanoma | OVCAR-4 ovarian | M14 melanoma | HOP-62 NSCLC | HOP-18 NSCLC
> 100 µM: all other assays above

ClCCC[Si]12OCCN(CCO1)CCO2
not listed: KM20L2 colon | HCT-15 colon | LOX IMVI melanoma | OVCAR-4 ovarian | M14 melanoma | HOP-62 NSCLC | HOP-18 NSCLC
> 100 µM: all other assays above

CC(C)C1CNC2N1C(=O)C2(C)OCc1ccccc1 (stereo unspecified)
not listed: OVCAR-5 ovarian | HOP-92 NSCLC | SNB-78 CNS | KM12 colon | SK-OV-3 ovarian | NCI-H522 lung | CAKI-1 renal | HOP-18 NSCLC
> 100 µM: all other assays above

CCN=C1Nc2ccccc2-n2c(nn3nc4ccccc4c23)N1CC
not listed: SK-MEL-2 melanoma | OVCAR-3 ovarian | TK-10 renal | SNB-78 CNS | MALME-3M melanoma | HCC-2998 colon | SK-OV-3 ovarian | UO-31 renal | CAKI-1 renal
> 100 µM: all other assays above
